According to the NIST ThermoML archive (doi:10.1016/j.jct.2016.01.002):

Test: xn = mol fraction of the nth substance listed
Settings: 100 kPa, Liquid; for electrical conductivity: Direct current cell with electrodes; for mass density: Vibrating tube method; for viscosity: Concentric cylinders viscometry

[Cl][Fe]([Cl])[Cl] [ferric chloride] + CCCCn1cc[n+](C)c1.[Cl-]
Settings	electrical conductivity [S/m]	mass density [kg/m3]	viscosity [mPa·s]
293.15 K, x1 = 0.3704	0.1033	1279.5	–
293.15 K, x1 = 0.4	0.172	1299.3	–
293.15 K, x1 = 0.4348	0.306	1322.8	–
293.15 K, x1 = 0.4545	0.406	1337.1	–
293.15 K, x1 = 0.4762	0.541	1352.4	–
293.15 K, x1 = 0.5	0.722	1369.9	–
293.15 K, x1 = 0.5238	0.675	1391.6	–
293.15 K, x1 = 0.5652	0.626	1433.4	–
293.15 K, x1 = 0.6	0.604	1468.1	–
298.15 K, x1 = 0.3704	0.1436	1275.8	195.6
298.15 K, x1 = 0.4	0.228	1295.2	123
298.15 K, x1 = 0.4348	0.387	1318.7	70.2
298.15 K, x1 = 0.4545	0.502	1332.9	51.1
298.15 K, x1 = 0.4762	0.658	1348.3	38.7
298.15 K, x1 = 0.5	0.864	1365.7	31.2
298.15 K, x1 = 0.5238	0.809	1387.4	30.1
298.15 K, x1 = 0.5652	0.747	1428.8	28.4
298.15 K, x1 = 0.6	0.719	1463.5	27.4
303.15 K, x1 = 0.3704	0.192	1271.9	–
303.15 K, x1 = 0.4	0.295	1291.2	–
303.15 K, x1 = 0.4348	0.478	1314.4	–
303.15 K, x1 = 0.4545	0.61	1328.8	–
303.15 K, x1 = 0.4762	0.786	1343.8	–
303.15 K, x1 = 0.5	1.011	1361.4	–
303.15 K, x1 = 0.5238	0.952	1383.4	–
303.15 K, x1 = 0.5652	0.878	1424.3	–
303.15 K, x1 = 0.6	0.84	1458.4	–
308.15 K, x1 = 0.3704	0.25	1268.1	–
308.15 K, x1 = 0.4	0.371	1287.4	–
308.15 K, x1 = 0.4348	0.582	1310.2	–
308.15 K, x1 = 0.4545	0.728	1324.8	–
308.15 K, x1 = 0.4762	0.926	1339.7	–
308.15 K, x1 = 0.5	1.18	1357.3	–
308.15 K, x1 = 0.5238	1.105	1378.9	–
308.15 K, x1 = 0.5652	1.017	1420	–
308.15 K, x1 = 0.6	0.973	1454.3	–
313.15 K, x1 = 0.3704	0.316	1264.2	–
313.15 K, x1 = 0.4	0.457	1283.3	–
313.15 K, x1 = 0.4348	0.696	1306.5	–
313.15 K, x1 = 0.4545	0.858	1320.6	–
313.15 K, x1 = 0.4762	1.07	1335.6	–
313.15 K, x1 = 0.5	1.35	1353.1	–
313.15 K, x1 = 0.5238	1.26	1374.5	–
313.15 K, x1 = 0.5652	1.16	1415.6	–
313.15 K, x1 = 0.6	1.114	1449.7	–
318.15 K, x1 = 0.3704	0.394	1260.6	–
318.15 K, x1 = 0.4	0.556	1279.6	–
318.15 K, x1 = 0.4348	0.823	1302.4	–
318.15 K, x1 = 0.4545	0.998	1316.7	–
318.15 K, x1 = 0.4762	1.233	1331.6	–
318.15 K, x1 = 0.5	1.535	1349	–
318.15 K, x1 = 0.5238	1.44	1370.4	–
318.15 K, x1 = 0.5652	1.325	1411.2	–
318.15 K, x1 = 0.6	1.26	1445.3	–
323.15 K, x1 = 0.3704	0.483	1256.7	–
323.15 K, x1 = 0.4	0.666	1275.7	–
323.15 K, x1 = 0.4348	0.961	1298.5	–
323.15 K, x1 = 0.4545	1.15	1312.6	–
323.15 K, x1 = 0.4762	1.4	1327.5	–
323.15 K, x1 = 0.5	1.726	1344.7	–
323.15 K, x1 = 0.5238	1.623	1366.2	–
323.15 K, x1 = 0.5652	1.5	1406.7	–
323.15 K, x1 = 0.6	1.423	1440.7	–
328.15 K, x1 = 0.3704	0.581	1253	–
328.15 K, x1 = 0.4	0.783	1271.8	–
328.15 K, x1 = 0.4348	1.108	1294.6	–
328.15 K, x1 = 0.4545	1.311	1308.7	–
328.15 K, x1 = 0.4762	1.58	1323.3	–
328.15 K, x1 = 0.5	1.929	1340.7	–
328.15 K, x1 = 0.5238	1.812	1361.9	–
328.15 K, x1 = 0.5652	1.67	1402.4	–
328.15 K, x1 = 0.6	1.59	1436.3	–
333.15 K, x1 = 0.3704	0.691	1249.2	–
333.15 K, x1 = 0.4	0.913	1267.8	–
333.15 K, x1 = 0.4348	1.27	1290.7	–
333.15 K, x1 = 0.4545	1.48	1304.6	–
333.15 K, x1 = 0.4762	1.76	1319.5	–
333.15 K, x1 = 0.5	2.14	1336.5	–
333.15 K, x1 = 0.5238	2.014	1357.7	–
333.15 K, x1 = 0.5652	1.85	1398	–
333.15 K, x1 = 0.6	1.76	1431.8	–
338.15 K, x1 = 0.3704	0.814	1245.5	–
338.15 K, x1 = 0.4	1.05	1263.9	–
338.15 K, x1 = 0.4348	1.436	1286.8	–
338.15 K, x1 = 0.4545	1.66	1300.6	–
338.15 K, x1 = 0.4762	1.96	1315.5	–
338.15 K, x1 = 0.5	2.35	1332.3	–
338.15 K, x1 = 0.5238	2.219	1353.2	–
338.15 K, x1 = 0.5652	2.042	1393.7	–
338.15 K, x1 = 0.6	1.936	1427.3	–
343.15 K, x1 = 0.3704	0.949	1241	–
343.15 K, x1 = 0.4	1.208	1260.3	–
343.15 K, x1 = 0.4348	1.614	1282.6	–
343.15 K, x1 = 0.4545	1.85	1296.7	–
343.15 K, x1 = 0.4762	2.16	1311.3	–
343.15 K, x1 = 0.5	2.58	1328.3	–
343.15 K, x1 = 0.5238	2.435	1349.2	–
343.15 K, x1 = 0.5652	2.24	1389.3	–
343.15 K, x1 = 0.6	2.12	1422.9	–
